Data published in patent publication US5807983A, “GNRH antagonist betides” (The Salk Institute for Biological Studies, priority 1996, dated 1998).
Non-standard residues stand in square brackets, D forms with d. Residues, ends and D or L forms follow the SMILES beside them. dPhe(4-NH2) = Nc1ccc(C[C@@H](N)C(=O)O)cc1; dPhe(4-Cl) = N[C@H](Cc1ccc(Cl)cc1)C(=O)O; Phe(4-NH2) = Nc1ccc(C[C@H](N)C(=O)O)cc1; d2Nal = N[C@H](Cc1ccc2ccccc2c1)C(=O)O; Lys(iPr) = CC(C)NCCCC[C@H](N)C(=O)O; d3Pal = N[C@H](Cc1cccnc1)C(=O)O

Key:
[1] = test system: ovulation in mature female Sprague-Dawley rats; assay: standard in vivo rat anti-ovulation test; conditions: injected in bacteriostatic water at about noon on the day of proestrus
Description: (§1) The betide is assayed in vivo to determine its effectiveness to prevent ovulation in female rats. Inthis test, a specified number of mature female Sprague-Dawley rats, e.g. five to ten, each having a body weight from 225 to 250 grams, are injected with a specified microgram dosage of the betide in bacteriostatic water at about noon on the day of proestrus. Proestrus is the […]. A separate female rat group is used as a control to which the peptide is not administered. Each of the control female rats ovulates on the evening of proestrus; the number of the rats treated which ovulate is recorded.

circulating LH = assay: suppression of circulating LH concentrations, duration of bioactivity; assay type: in vivo; conditions: dose of 50 micrograms per rat; for duration of bioactivity (LH suppression): testing as in Example 1
[2] = hydrophilicity by RP-HPLC retention; assay type: physicochemical; conditions: for hydrophilicity compared to Acyline: RP-HPLC; for RP-HPLC retention (hydrophilicity): gradient 40% to 75% Buffer B over 30 minutes, Buffer A TEAP pH 7.3, Buffer B 60% CH3CN and 40% Buffer A
[3] = examination of injected rats for tolerance and gelling at the point of injection; assay type: in vivo, rat; conditions: after injection in the anti-ovulation test
Description: as §1

Molecule	anti-ovulatory activity: rats ovulating out of rats treated ([1]; dosage 2.5 μg)	hydrophilicity compared to Acyline [2]	further results
CC(=O)Nc1ccc(C[C@H](NC(=O)[C@H](CO)NC(=O)[C@@H](Cc2cccnc2)NC(=O)[C@@H](Cc2ccc(Cl)cc2)NC(=O)C(NC(C)=O)NC(=O)c2ccc3ccccc3c2)C(=O)N[C@H](Cc2ccc(NC(C)=O)cc2)C(=O)N[C@@H](CC(C)C)C(=O)N[C@@H](CCCCNC(C)C)C(=O)N2CCC[C@H]2C(=O)N[C@H](C)C(N)=O)cc1 (single isomer, unassigned) [Betide No. 3, Ac-γ-(2-naphthoyl)amidoGly-4Cl-D-Phe-D-3Pal-Ser-Aph(acetyl)-D-Aph(acetyl)-Leu-Lys(isopropyl)-Pro-D-Ala-NH2]	0/8	–	anti-ovulatory activity: rats ovulating out of rats treated ([1]; dosage 1 μg): 2 out of 7; duration of bioactivity (LH suppression) (circulating LH): ≥ 48 h
Ac-D-2Nal-(4Cl)D-Phe-D-3Pal-Ser-Aph(acetyl)-D-Aph(acetyl)-Leu-D/L-Agl(acetyl-β-Ala)-Pro-D-Ala-NH2 [Betide No. 7]	3 out of 9	more hydrophilic than Acyline	anti-ovulatory activity: rats ovulating out of rats treated ([1]; dosage 5 μg): 0 out of 11
Ac-2Nal-4Cl-D-Phe-D-3Pal-Ser-Aph(acetyl)-D-Aph(acetyl)-Leu-Lys(isopropyl)- Pro-D/L-Agl(methyl,For)-NH2 [Betide No. 8C]	0/8	more hydrophilic than Acyline	anti-ovulatory activity: rats ovulating out of rats treated ([1]; dosage 1 μg): 1 out of 8
CC(=O)Nc1ccc(C[C@H](NC(=O)[C@H](CO)NC(=O)C(NC(=O)[C@@H](Cc2ccc(Cl)cc2)NC(=O)[C@@H](Cc2ccc3ccccc3c2)NC(C)=O)N(C)C(=O)c2cccnc2)C(=O)N[C@H](Cc2ccc(NC(C)=O)cc2)C(=O)N[C@@H](CC(C)C)C(=O)N[C@@H](CCCCNC(C)C)C(=O)N2CCC[C@H]2C(=O)N[C@H](C)C(N)=O)cc1 (single isomer, unassigned) [Betide No. 1B first isomer, Ac-β-D-2Nal-D-Cpa-γ-(3-pyridyl)methylD/L-amidoGly-Ser-Aph(acetyl)-D-Aph(acetyl)-Leu-Lys(isopropyl)-Pro-D-Ala-NH2]	only the second isomer was bioactive	more hydrophilic than Acyline	–
CC(=O)Nc1ccc(C[C@H](NC(=O)[C@H](CO)NC(=O)C(NC(=O)c2ccncc2)NC(=O)[C@@H](Cc2ccc(Cl)cc2)NC(=O)[C@@H](Cc2ccc3ccccc3c2)NC(C)=O)C(=O)N[C@H](Cc2ccc(NC(C)=O)cc2)C(=O)N[C@@H](CC(C)C)C(=O)N[C@@H](CCCCNC(C)C)C(=O)N2CCC[C@H]2C(=O)N[C@H](C)C(N)=O)cc1 (single isomer, unassigned) [Betide No. 1A second isomer, Ac-β-D-2Nal-D-4Cpa-γ-(4-pyridyl)D/L-amidoGly-Ser-Aph(acetyl)-D- Aph(acetyl)-Leu-Lys(isopropyl)-Pro-D-Ala-NH2]	2 out of 8	more hydrophilic than Acyline	anti-ovulatory activity: rats ovulating out of rats treated ([1]; dosage 10 μg): 0 out of 8
CC(=O)Nc1ccc(C[C@H](NC(=O)[C@H](CO)NC(=O)C(NC(=O)c2cccnc2)NC(=O)[C@@H](Cc2ccc(Cl)cc2)NC(=O)[C@@H](Cc2ccc3ccccc3c2)NC(C)=O)C(=O)N[C@H](Cc2ccc(NC(C)=O)cc2)C(=O)N[C@@H](CC(C)C)C(=O)N[C@@H](CCCCNC(C)C)C(=O)N2CCC[C@H]2C(=O)N[C@H](C)C(N)=O)cc1 (single isomer, unassigned) [Betide No. 1, Ac-D-2Nal-(4Cl)D-Phe-γ-(3-pyridyl)amidoGly-Ser-Aph(acetyl)-D-Aph(acetyl)-Leu-Lys(isopropyl)-Pro-D-Ala-NH2]	–	more hydrophilic	RP-HPLC retention (hydrophilicity) [2]: 23.5 min; circulating LH concentrations relative to control levels (circulating LH; for 48 hours or more): less than 25 % of control levels; duration of bioactivity (LH suppression) (circulating LH): ≥ 48 h; gelling at the point of injection [3]: no significant gelling; tolerance in treated rats [3]: very well tolerated
CC(=O)Nc1ccc(C[C@H](NC(=O)[C@H](CO)NC(=O)C(NC(=O)[C@@H](Cc2ccc(Cl)cc2)NC(=O)[C@@H](Cc2ccc3ccccc3c2)NC(C)=O)N(C)C(=O)c2cccnc2)C(=O)N[C@H](Cc2ccc(NC(C)=O)cc2)C(=O)N[C@@H](CC(C)C)C(=O)N[C@@H](CCCCNC(C)C)C(=O)N2CCC[C@H]2C(=O)N[C@H](C)C(N)=O)cc1 (single isomer, unassigned) [Betide No. 1B second isomer, Ac-β-D-2Nal-D-Cpa-γ-(3-pyridyl)methylD/L-amidoGly-Ser-Aph(acetyl)-D-Aph(acetyl)-Leu-Lys(isopropyl)-Pro-D-Ala-NH2]	3 out of 8	more hydrophilic than Acyline	–
Ac-D-2Nal-(4Cl)D-Phe-D-3Pal-Ser-Aph(acetyl)-D-Aph(acetyl)-Leu-Lys(isopropyl)-Pro-D/L-Agl-NH2 [Betide No. 8A]	0 out of 8	more hydrophilic than Acyline	–
CC(=O)Nc1ccc(C[C@H](NC(=O)[C@H](CO)NC(=O)C(NC(=O)c2ccncc2)NC(=O)[C@@H](Cc2ccc(Cl)cc2)NC(=O)[C@@H](Cc2ccc3ccccc3c2)NC(C)=O)C(=O)N[C@H](Cc2ccc(NC(C)=O)cc2)C(=O)N[C@@H](CC(C)C)C(=O)N[C@@H](CCCCNC(C)C)C(=O)N2CCC[C@H]2C(=O)N[C@H](C)C(N)=O)cc1 (single isomer, unassigned) [Betide No. 1A first isomer, Ac-β-D-2Nal-D-4Cpa-γ-(4-pyridyl)D/L-amidoGly-Ser-Aph(acetyl)-D- Aph(acetyl)-Leu-Lys(isopropyl)-Pro-D-Ala-NH2]	only the second isomer was bioactive	more hydrophilic than Acyline	anti-ovulatory activity: rats ovulating out of rats treated ([1]; dosage 10 μg): 3 out of 7
CC(=O)Nc1ccc(C[C@H](NC(=O)[C@H](CO)NC(=O)[C@@H](Cc2cccnc2)NC(=O)[C@@H](Cc2ccc(Cl)cc2)NC(=O)[C@@H](Cc2ccc3ccccc3c2)NC(C)=O)C(=O)N[C@H](Cc2ccc(NC(C)=O)cc2)C(=O)N[C@@H](CC(C)C)C(=O)N[C@@H](CCCCNC(C)C)C(=O)N2CCC[C@H]2C(=O)N[C@H](C)C(N)=O)cc1 [Acyline, Ac-D-2Nal-D-4Cpa-D-3Pal-Ser-Aph(Ac)-D-Aph(Ac)-Leu-ILys-Pro-D-Ala-NH2, reference compound] (Ac-[d2Nal][dPhe(4-Cl)][d3Pal]S[Phe(4-NH2)](Ac)[dPhe(4-NH2)](Ac)L[Lys(iPr)]P[dA]-NH2)	–	–	RP-HPLC retention (hydrophilicity) [2]: 24.1 min
CC(=O)Nc1ccc(C[C@H](NC(=O)[C@H](CO)NC(=O)[C@@H](Cc2cccnc2)NC(=O)[C@@H](Cc2ccc(Cl)cc2)NC(=O)C(NC(C)=O)N(C)C(=O)c2ccc3ccccc3c2)C(=O)N[C@H](Cc2ccc(NC(C)=O)cc2)C(=O)N[C@@H](CC(C)C)C(=O)N[C@@H](CCCCNC(C)C)C(=O)N2CCC[C@H]2C(=O)N[C@H](C)C(N)=O)cc1 (single isomer, unassigned) [Betide No. 3C second isomer, Ac-D/L-Agl(methyl,2-naphthoyl)-D-4Cpa-D-3Pal-Ser-Aph(acetyl)-D-Aph(acetyl)-Leu-Lys(isopropyl)-Pro-D-Ala-NH2]	–	–	anti-ovulatory activity: rats ovulating out of rats treated ([1]; dosage 5 μg): 6 out of 8
